Source: US20060069132A1, “Azolecarboxamide herbicides” (priority 2004, published 2006)
Where two headings read alike, the source gives them in different places.

Assays:
corn = assay: Test C pre-/postemergence herbicide test; format: in vivo, Zea mays
Procedure, shortened: (§1)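 Preemergence: seeds planted and treated with compound in non-phytotoxic solvent with surfactant; postemergence: plants at 2 to 18 cm (1- to 4-leaf stage) sprayed likewise. Kept in greenhouse 12 to 14 days, then visually rated against controls, 0 (no effect) to 100 (complete control).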

lambsquarters = assay: Test C pre-/postemergence herbicide test; format: in vivo, Chenopodium album
Procedure, shortened: as §1

[1] = system: smallflower umbrella sedge; assay: Test C flooded paddy test; format: in vivo, Cyperus difformis; settings: Cyperus difformis
pigweed = assay: Test C pre-/postemergence herbicide test; format: in vivo, Amaranthus retroflexus
Procedure, shortened: as §1

common ragweed = assay: Test C pre-/postemergence herbicide test; format: in vivo, Ambrosia elatior
Procedure, shortened: as §1

barnyardgrass [2] = assay: Test A pre-/postemergence herbicide test; format: in vivo, Echinochloa crus-galli; settings: Echinochloa crus-galli, 240 h; for pest or weed control at 500 g/ha: 500 g ai/ha; for pest or weed control at 2000 g/ha: 2000 g ai/ha
Procedure, shortened: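 Sandy loam soil given preemergence directed spray; plants at 2 to 10 cm, one- to two-leaf stage, sprayed to runoff postemergence, compounds in non-phytotoxic solvent with surfactant. Injury rated visually versus untreated controls after about ten greenhouse days, 0 (no effect) to 100 (complete control); dash means not tested.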

large crabgrass = assay: Test C pre-/postemergence herbicide test; format: in vivo, Digitaria sanguinalis
Procedure, shortened: as §1

velvetleaf = assay: Test C pre-/postemergence herbicide test; format: in vivo, Abutilon theophrasti
Procedure, shortened: as §1

barnyardgrass [3] = assay: Test C flooded paddy test; format: in vivo, Echinochloa crus-galli; settings: Echinochloa crus-galli
Procedure, shortened: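 Scoring by eye, 12–14 days post-treatment, greenhouse-held plants vs. controls; 0 no effect, 100 complete control. Sprayed at 1–4 leaves (2–18 cm); paddy barnyardgrass at 2 leaves, flooded.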

ducksalad = assay: Test C flooded paddy test; format: in vivo, Heteranthera limosa; settings: Heteranthera limosa
cocklebur = assay: Test C pre-/postemergence herbicide test; format: in vivo, Xanthium strumarium
Procedure, shortened: as §1

[4] = system: common (oilseed) sunflower; assay: Test C pre-/postemergence herbicide test; format: in vivo, Helianthus annuus
Procedure, shortened: as §1

eastern black nightshade = assay: Test C pre-/postemergence herbicide test; format: in vivo, Solanum ptycanthum
Procedure, shortened: as §1

[5] = Preemergence, 500 g ai/ha, scale 0 to 100, 0 no effect, 100 complete control
[6] = post-emergence, Postemergence, 0 to 100 scale, 0 no effect, 100 complete control, read-out: Plant response rating, Barnyardgrass

## CCNC(=O)c1ccc(F)c(NC(=O)c2cc(C(C)(C)C)nn2CC)c1 [Compound 2, 3-(1,1-dimethylethyl)-1-ethyl-N-[5-[(ethylamino)carbonyl]-2-fluorophenyl]-1H-pyrazole-5-carboxamide]
corn; 62 g ai/ha, preemergence
  Plant response rating (0 = no effect, 100 = complete control), Corn: 0
corn; [5]
  Corn plant response rating: 60
corn; Zea mays, pre-emergence, 312 h, 125 g ai/ha, scale 0-100
  Corn plant response rating (crop injury, 0 = no effect, 100 = complete kill) at 125 g/ha: 30%
corn; Zea mays, pre-emergence, 312 h, 250 g ai/ha, scale 0 to 100 (0 no effect, 100 complete control), visual, 12 to 14 days
  Corn plant response rating (crop injury, 0 = no effect, 100 = complete kill) at 250 g/ha: 35%
lambsquarters; 62 g ai/ha, preemergence
  Plant response rating (0 = no effect, 100 = complete control), Lambsquarters: 100
lambsquarters; Chenopodium album, pre-emergence, 125 g ai/ha, scale 0-100, read-out: Plant response rating, Lambsquarters
  pest or weed control at 125 g/ha: 100%
lambsquarters; Chenopodium album, pre-emergence, 250 g ai/ha, scale 0 to 100 (0 no effect, 100 complete control), visual, 12 to 14 days, read-out: Plant response rating, Lambsquarters
  pest or weed control at 250 g/ha: 100%
lambsquarters; [5]
  Lambsquarters plant response rating: 100
[1]; 62 g ai/ha, scale 0 to 100 (0 no effect, 100 complete control), read-out: Sedge, Umbrella plant response rating
  pest or weed control at 62 g/ha: 75%
[1]; 125 g ai/ha, scale of 0 to 100, 0 is no effect, 100 is complete control, read-out: Sedge, Umbrella plant response rating
  pest or weed control at 125 g/ha: 75%
[1]; 250 g ai/ha, visual rating after 12 to 14 days, scale 0 to 100 (0 no effect, 100 complete control), read-out: Plant response rating, Sedge, Umbrella
  pest or weed control at 250 g/ha: 85%
[1]; 500 g ai/ha, visual rating after 12 to 14 days, scale 0 to 100 (0 no effect, 100 complete control), read-out: Plant response rating, Sedge, Umbrella
  pest or weed control at 500 g/ha: 95%
pigweed; 62 g ai/ha, preemergence
  Plant response rating (0 = no effect, 100 = complete control), Pigweed: 95
pigweed; Amaranthus retroflexus, pre-emergence, 250 g ai/ha, scale 0 to 100 (0 no effect, 100 complete control), visual, 12 to 14 days, read-out: Plant response rating, Pigweed
  pest or weed control at 250 g/ha: 95%
pigweed; [5]
  Pigweed plant response rating: 100
Common ragweed; 62 g ai/ha, preemergence
  Plant response rating (0 = no effect, 100 = complete control), Ragweed: 80
Common ragweed; Ambrosia artemisiifolia, pre-emergence, 250 g ai/ha, scale 0 to 100 (0 no effect, 100 complete control), visual, 12 to 14 days, read-out: Plant response rating, Ragweed
  pest or weed control at 250 g/ha: 100%
Common ragweed; [5]
  Ragweed plant response rating: 100
Barnyardgrass [2]; [6]
  pest or weed control at 500 g/ha: 100%
  pest or weed control at 2000 g/ha: 100%
Barnyardgrass [2]; pre-emergence, Preemergence, visual rating, 0 to 100 scale (0 no effect, 100 complete control), read-out: Barnyardgrass plant response rating
  pest or weed control at 500 g/ha: 100%
Barnyardgrass [2]; pre-emergence, Preemergence, 0 to 100 scale, 0 no effect, 100 complete control, read-out: Barnyardgrass plant response rating
  pest or weed control at 2000 g/ha: 100%
Large crabgrass; 62 g ai/ha, preemergence
  Plant response rating (0 = no effect, 100 = complete control), Crabgrass, Large: 95
Large crabgrass; Digitaria sanguinalis, pre-emergence, 312 h, 125 g ai/ha, scale 0-100, read-out: Plant response rating, Crabgrass, Large
  pest or weed control at 125 g/ha: 95%
Large crabgrass; Digitaria sanguinalis, pre-emergence, 312 h, 250 g ai/ha, scale 0 to 100 (0 no effect, 100 complete control), visual, 12 to 14 days, read-out: Plant response rating, Crabgrass, Large
  pest or weed control at 250 g/ha: 100%
Large crabgrass; [5]
  Crabgrass, Large plant response rating: 100
velvetleaf; 62 g ai/ha, preemergence
  Plant response rating (0 = no effect, 100 = complete control), Velvetleaf: 60
velvetleaf; Abutilon theophrasti, pre-emergence, 250 g ai/ha, scale 0 to 100 (0 no effect, 100 complete control), visual, 12 to 14 days, read-out: Plant response rating, Velvetleaf
  pest or weed control at 250 g/ha: 100%
velvetleaf; [5]
  Velvetleaf plant response rating: 100
Barnyardgrass [3]; 62 g ai/ha, scale 0 to 100 (0 no effect, 100 complete control), read-out: Barnyardgrass plant response rating
  pest or weed control at 62 g/ha: 15%
Barnyardgrass [3]; 125 g ai/ha, scale of 0 to 100, 0 is no effect, 100 is complete control, read-out: Barnyardgrass plant response rating
  pest or weed control at 125 g/ha: 75%
Barnyardgrass [3]; 250 g ai/ha, visual rating after 12 to 14 days, scale 0 to 100 (0 no effect, 100 complete control), read-out: Plant response rating, Barnyardgrass
  pest or weed control at 250 g/ha: 75%
Barnyardgrass [3]; 500 g ai/ha, visual rating after 12 to 14 days, scale 0 to 100 (0 no effect, 100 complete control), read-out: Plant response rating, Barnyardgrass
  pest or weed control at 500 g/ha: 90%
ducksalad; 62 g ai/ha, scale 0 to 100 (0 no effect, 100 complete control), read-out: Ducksalad plant response rating
  pest or weed control at 62 g/ha: 80%
ducksalad; 125 g ai/ha, scale of 0 to 100, 0 is no effect, 100 is complete control, read-out: Ducksalad plant response rating
  pest or weed control at 125 g/ha: 80%
ducksalad; 250 g ai/ha, visual rating after 12 to 14 days, scale 0 to 100 (0 no effect, 100 complete control), read-out: Plant response rating, Ducksalad
  pest or weed control at 250 g/ha: 85%
ducksalad; 500 g ai/ha, visual rating after 12 to 14 days, scale 0 to 100 (0 no effect, 100 complete control), read-out: Plant response rating, Ducksalad
  pest or weed control at 500 g/ha: 95%
cocklebur; 62 g ai/ha, preemergence
  Plant response rating (0 = no effect, 100 = complete control), Cocklebur: 5
cocklebur; Xanthium strumarium, pre-emergence, 312 h, 125 g ai/ha, scale 0-100, read-out: Plant response rating, Cocklebur
  pest or weed control at 125 g/ha: 5%
cocklebur; Xanthium strumarium, pre-emergence, 312 h, 250 g ai/ha, scale 0 to 100 (0 no effect, 100 complete control), visual, 12 to 14 days, read-out: Plant response rating, Cocklebur
  pest or weed control at 250 g/ha: 65%
cocklebur; Xanthium strumarium, pre-emergence, 312 h, Preemergence, 500 g ai/ha, scale 0 to 100, 0 no effect, 100 complete control, read-out: Cocklebur plant response rating
  pest or weed control at 500 g/ha: 80%
[4]; 62 g ai/ha, preemergence
  Plant response rating (0 = no effect, 100 = complete control), Sunflower: 0
[4]; Helianthus annuus, pre-emergence, 250 g ai/ha, scale 0 to 100 (0 no effect, 100 complete control), visual, 12 to 14 days, read-out: Plant response rating, Sunflower
  pest or weed control at 250 g/ha: 0%
[4]; [5]
  Sunflower plant response rating: 0
Eastern black nightshade; 62 g ai/ha, preemergence
  Plant response rating (0 = no effect, 100 = complete control), Nightshade: 100
Eastern black nightshade; [5]
  Nightshade plant response rating: 100
Eastern black nightshade; pre-emergence, 250 g ai/ha, scale 0 to 100 (0 no effect, 100 complete control), visual, 12 to 14 days, read-out: Plant response rating, Nightshade
  pest or weed control at 250 g/ha: 100%
